In publication PMC7221793, “Metabolism and Pharmacokinetics of SP-8356, a Novel (1S)-(−)-Verbenone Derivative, in Rats and Dogs and Its Implications in Humans” (Molecules, 2020):

Legend:
[1] = In vivo metabolite identification, pooled rat plasma (Q-TOF LC-MS/MS); settings: i.v. SP-8356 20 mg/kg; for AUClast (%): % versus total AUClast of parent and all detected metabolites; for AUClast (AR∙h) × 10^2: AR = peak area ratio versus internal standard; for Tmax: male, SD, iv, time of highest AR
Procedure: (§1) Plasma samples from the i.v. administrations described in Section 4.2 and Section 4.3 were used in this study. Plasma samples pooled at each time point were subjected to sample preparation as described in Section 4.2. The prepared samples were analyzed by Agilent 6530 Q-TOF LC-MS/MS system equipped with dual AJS ESI ion source and Agilent 1200 series HPLC system as described below.
(§2) Chromatographic separation was achieved on an Agilent Eclipse C18 column (2.1 mm × 100 mm, 3.5 µm) by a gradient elution with a mobile phase consisting of 0.1 vol.% formic acid in water (A) and 0.1 vol.% formic acid in acetonitrile (B) at 50 °C: starting with 5 vol.% B for 2 min, ramping to 95 vol.% B over 1 min, maintaining for 3 min. The mobile phase flow rate was kept at 0.45 mL/min throughout the run. The sample injection volume was 5 µL. Ion source parameters were set as follows: capillary voltage, 3500 V; drying gas, 12 L/min and 300 °C; nebulizer gas, 30 psi; sheath gas, 12 L/min and 300 °C. Mass spectra were acquired in negative ion auto MS/MS mode (F, 135 V; CE, 25 eV) with full scan range of m/z (100–1000) and mass scan rate of 8 spectra/s. Metabolites were identified using Agilent MassHunter Metabolite ID software (version B.04.00) (Santa Clara, CA, USA). Chromatograms and mass spectra of the parent and identified metabolites were extracted using Agilent MassHunter Qualitative Analysis software (version B.05.00) (Santa Clara, CA, USA).

[2] = In vivo metabolite identification, pooled dog plasma (Q-TOF LC-MS/MS); settings: i.v. SP-8356 50 mg/kg; for AUClast (%): % versus total AUClast of parent and all detected metabolites; for AUClast (AR∙h) × 10^2: AR = peak area ratio versus internal standard; for Tmax: male, Beagle, iv, time of highest AR
Procedure: as §1, §2

[3] = In vivo metabolite identification, pooled rat urine; settings: rat pooled urine 0–24 h, single i.v. dose of SP-8356
Procedure: Rat urine samples were collected from the animal studies approved by the IACUC of Korea University (Approval No.: KUIACUC-2017-124; Approval date: Jul. 29, 2017). SP-8356 dissolved in DMA/Cremophor EL/saline (5/10/85 vol.%) was dosed i.v. at 10 mg/kg (n = 5/dose group) to male SD rats (8 weeks old; (255–275) g; Koatech Inc., Gyeonggi, Republic of Korea) housed individually in metabolic cages. Urine samples were collected for ((0–4), (4–8) and (8–24)) h. Pooled urine samples were mixed with equal volume of acetonitrile containing HSDH (1 μg/mL) as IS, followed by filtration with a syringeless filter device (Mini-UniPrep™, PTFE filter media with polypropylene housing, 0.45 µm). The filtrate was analyzed by Agilent 6530 Q-TOF LC-MS/MS system equipped with dual AJS ESI ion source and Agilent 1200 series HPLC system, as follows.
Chromatographic separation was achieved on an Agilent Eclipse C18 column (2.1 mm × 100 mm, 3.5 µm) by a gradient elution with a mobile phase consisting of 0.1 vol.% formic acid in water (A) and 0.1 vol.% formic acid in acetonitrile (B) at 50 °C: starting with 5 vol.% B for 2 min, ramping to 95 vol.% B over 1 min, maintaining for 3 min. The mobile phase flow rate was kept at 0.45 mL/min throughout the run. The sample injection volume was 5 µL. […]

Row | AUClast (%) [1] [%] | AUClast (AR∙h) × 10^2 [1] | Tmax [1] [min] | AUClast (%) [2] [%] | AUClast (AR∙h) × 10^2 [2] | Tmax [2] [min] | metabolites detected in urine [3] | SMILES
1 | 0.84 | 1.14 (AR∙h) × 10^2 | 15 | 3.05 | 120.5 (AR∙h) × 10^2 | 60 | detected | COc1cc(C=CC2=CC(=O)C3CC2C3(C)C)cc(OC2OC(C(=O)O)C(O)C(O)C2O)c1OC1OC(C(=O)O)C(O)C(O)C1O (stereo not shown) [M5]
2 | 0.40 | 0.55 (AR∙h) × 10^2 | 1.02 | 0.07 | 2.7 (AR∙h) × 10^2 | 4.98 |  | CC1(C)[C@@H]2C[C@H]1C(/C=C/c1cc(O)c(O)c(O)c1)=CC2=O [M3]
